Experimental data reported in US11084829B2, “Ubiquitin-specific-processing protease 7 (USP7) modulators and uses thereof” (RAPT THERAPEUTICS, INC., priority 2018, dated 2021).

Target: USP7 (Homo sapiens, UniProt Q93009)
Experiment: USP7 inhibitory potency (IC50)
Assay type: biochemical
Protocol: Activity for compounds described herein is provided in Table 2, wherein potency levels are provided as follows: (Potency: USP7 IC50: A<0.01 μM; B=0.01-0.1 μM; C=>0.1 μM.

Chain of USP7 (Q93009 whole entry): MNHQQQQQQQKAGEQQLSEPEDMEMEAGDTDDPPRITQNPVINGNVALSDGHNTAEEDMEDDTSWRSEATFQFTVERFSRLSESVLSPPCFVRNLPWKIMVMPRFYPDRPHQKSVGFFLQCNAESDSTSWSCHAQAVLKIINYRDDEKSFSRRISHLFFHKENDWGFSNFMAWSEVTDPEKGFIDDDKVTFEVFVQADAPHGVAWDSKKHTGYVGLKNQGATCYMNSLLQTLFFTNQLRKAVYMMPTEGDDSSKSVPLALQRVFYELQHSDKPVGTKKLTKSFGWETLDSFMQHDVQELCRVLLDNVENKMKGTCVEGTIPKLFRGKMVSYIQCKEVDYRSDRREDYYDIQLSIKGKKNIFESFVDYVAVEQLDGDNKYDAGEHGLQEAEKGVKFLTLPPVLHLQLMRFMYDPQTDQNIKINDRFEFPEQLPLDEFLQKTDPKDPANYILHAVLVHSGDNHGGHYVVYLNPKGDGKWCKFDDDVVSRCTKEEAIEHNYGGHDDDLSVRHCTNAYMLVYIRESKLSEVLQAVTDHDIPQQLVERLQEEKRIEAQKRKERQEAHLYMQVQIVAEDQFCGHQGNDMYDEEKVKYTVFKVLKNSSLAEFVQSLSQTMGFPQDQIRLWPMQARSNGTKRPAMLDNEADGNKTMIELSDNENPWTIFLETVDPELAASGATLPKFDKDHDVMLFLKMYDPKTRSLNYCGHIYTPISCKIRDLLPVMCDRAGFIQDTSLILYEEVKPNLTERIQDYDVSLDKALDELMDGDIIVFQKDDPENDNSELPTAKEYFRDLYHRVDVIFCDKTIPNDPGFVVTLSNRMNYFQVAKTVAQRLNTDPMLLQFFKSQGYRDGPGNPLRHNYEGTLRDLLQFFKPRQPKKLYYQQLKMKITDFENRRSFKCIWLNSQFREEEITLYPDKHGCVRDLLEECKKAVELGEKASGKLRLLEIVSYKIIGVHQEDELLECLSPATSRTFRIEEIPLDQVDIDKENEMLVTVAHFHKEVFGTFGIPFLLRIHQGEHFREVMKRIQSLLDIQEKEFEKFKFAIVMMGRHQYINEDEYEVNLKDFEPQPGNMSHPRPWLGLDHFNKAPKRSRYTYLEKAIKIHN

IC50 [nM]	Compound
< 10	Cc1cc(Cl)cc(-c2ccnc3cc(Cn4c(=O)ccn(C)c4=O)sc23)c1CN1C[C@@H](C)NC[C@@H]1C [Example 46, 3-((7-(5-chloro-2-(((2S,5R)-2,5-dimethylpiperazin-1-yl)methyl)-3-methylphenyl)thieno[3,2-b]pyridin-2-yl)methyl)-1-methylpyrimidine-2,4(1H,3H)-dione]
< 10	Cc1cc(Cl)cc(-c2ncnc3cc(CN4C(=O)C5CC5C4=O)sc23)c1CN1[C@@H](C)CNC[C@@H]1C (stereo partly drawn) [Example 57, 3-((4-(5-chloro-2-(((2S,6S)-2,6-dimethylpiperazin-1-yl)methyl)-3-methylphenyl)thieno[3,2-d]pyrimidin-6-yl)methyl)-3-azabicyclo[3.1.0]hexane-2,4-dione]
< 10	Cc1cc(Cl)cc(-c2ncnc3cc(Cn4c(=O)ccn(C5CC5)c4=O)sc23)c1CC1CNCCO1 (centres unmarked) [Example 165, 3-((4-(5-chloro-3-methyl-2-(morpholin-2-ylmethyl)phenyl)thieno[3,2-d]pyrimidin-6-yl)methyl)-1-cyclopropylpyrimidine-2,4(1H,3H)-dione]
< 10	Cc1cc(Cl)cc(-c2ccnc3cc(CN4C(=O)C5CC5C4=O)sc23)c1CC1CNCCS1 (centres unmarked) [Example 113, 3-((7-(5-chloro-3-methyl-2-(thiomorpholin-2-ylmethyl)phenyl)thieno[3,2-b]pyridin-2-yl)methyl)-3-azabicyclo[3.1.0]hexane-2,4-dione]
< 10	Cc1cc(Cl)cc(-c2ncnc3cc(Cn4c(=O)ccn(C)c4=O)sc23)c1CC1CNCCO1 (centres unmarked) [Example 162, 3-((4-(5-chloro-3-methyl-2-(morpholin-2-ylmethyl)phenyl)thieno[3,2-d]pyrimidin-6-yl)methyl)-1-methylpyrimidine-2,4(1H,3H)-dione]
> 100	CC1(C)CNCC(Cc2c(Cl)cc(Cl)cc2-c2ncnc3cc(Cn4cnccc4=O)sc23)O1 (centres unmarked) [Example 251, 3-((4-(3,5-dichloro-2-((6,6-dimethylmorpholin-2-yl)methyl)phenyl)thieno[3,2-d]pyrimidin-6-yl)methyl)pyrimidin-4(3H)-one]
< 10	CCC1NC(=O)N(Cc2cc3ncnc(-c4cc(Cl)cc(C)c4C[C@@H]4CNCCO4)c3s2)C1=O (stereo partly drawn) [Example 245, 3-((4-(5-chloro-3-methyl-2-(((R)-morpholin-2-yl)methyl)phenyl)thieno[3,2-d]pyrimidin-6-yl)methyl)-5-ethylimidazolidine-2,4-dione]
< 10	3-((4-(2-((5-oxa-8-azaspiro[3.5]nonan-6-yl)methyl)-5-chloro-3-methylphenyl)thieno[3,2-d]pyrimidin-6-yl)methyl)-3-azabicyclo[3.1.0]hexane-2,4-dione [Example 221]
< 10	Cc1cc(Cl)cc(-c2ncnc3cc(C(C)N4C(=O)C5C(C4=O)C5(C)C)sc23)c1C[C@@H]1CNCCO1 (stereo partly drawn) [Example 209, 3-(1-(4-(5-chloro-3-methyl-2-(((R)-morpholin-2-yl)methyl)phenyl)thieno[3,2-d]pyrimidin-6-yl)ethyl)-6,6-dimethyl-3-azabicyclo[3.1.0]hexane-2,4-dione]
10 to 100	Cc1cc(Cl)cc(-c2ncnc3cc(CN4C(=O)C5CC5C4=O)sc23)c1CC1CNCCOC1 (centres unmarked) [Example 185, 3-((4-(2-((1,4-oxazepan-6-yl)methyl)-5-chloro-3-methylphenyl)thieno[3,2-d]pyrimidin-6-yl)methyl)-3-azabicyclo[3.1.0]hexane-2,4-dione]
< 10	Cc1cc(Cl)cc(-c2ncnc3cc(CN4C(=O)NC(C)C4=O)sc23)c1C[C@@H]1CNCCO1 (stereo partly drawn) [Example 244, 3-((4-(5-chloro-3-methyl-2-(((R)-morpholin-2-yl)methyl)phenyl)thieno[3,2-d]pyrimidin-6-yl)methyl)-5-methylimidazolidine-2,4-dione]
< 10	Cc1cc(Cl)cc(-c2ccnc3cc(CN4C(=O)CCC4=O)sc23)c1CN1CCCNCC1 [Example 17, 1-((7-(2-((1,4-diazepan-1-yl)methyl)-5-chloro-3-methylphenyl)thieno[3,2-b]pyridin-2-yl)methyl)pyrrolidine-2,5-dione]
< 10	O=C1C2CC2C(=O)N1Cc1cc2nccc(-c3cc(Cl)cc(Cl)c3CC3CNCC4(CCC4)O3)c2s1 (centres unmarked) [Example 150, 3-((7-(2-((5-oxa-8-azaspiro[3.5]nonan-6-yl)methyl)-3,5-dichlorophenyl)thieno[3,2-b]pyridin-2-yl)methyl)-3-azabicyclo[3.1.0]hexane-2,4-dione]
< 10	CCN1CCN(Cc2c(C)cc(Cl)cc2-c2ncnc3cc(CN4C(=O)C5C(C4=O)C5(C)C)sc23)[C@@H](C)C1 (stereo partly drawn) [Example 54, 3-((4-(5-chloro-2-(((S)-4-ethyl-2-methylpiperazin-1-yl)methyl)-3-methylphenyl)thieno[3,2-d]pyrimidin-6-yl)methyl)-6,6-dimethyl-3-azabicyclo[3.1.0]hexane-2,4-dione]
< 10	Cc1cc(Cl)cc(-c2ncnc3cc(CN4C(=O)C5CC5C4=O)sc23)c1C[C@@H]1CN(C(=O)C(F)(F)F)CCO1 (stereo partly drawn) [Example 199, 3-((4-(5-chloro-3-methyl-2-(((R)-4-(2,2,2-trifluoroacetyl)morpholin-2-yl)methyl)phenyl)thieno[3,2-d]pyrimidin-6-yl)methyl)-3-azabicyclo[3.1.0]hexane-2,4-dione]
10 to 100	Cc1cc(Cl)cc(-c2ccnc3cc(CN4C(=O)C5C(C4=O)C5(C)C)sc23)c1CN1CCNCC1 (centres unmarked) [Example 6, 3-((7-(5-chloro-3-methyl-2-(piperazin-1-ylmethyl)phenyl)thieno[3,2-b]pyridin-2-yl)methyl)-6,6-dimethyl-3-azabicyclo[3.1.0]hexane-2,4-dione]
< 10	Cc1cc(Cl)cc(-c2ncnc3cc(CN4C(=O)C5CC5C4=O)sc23)c1C[C@H]1OCCN[C@@H]1C (stereo partly drawn) [Example 160, 3-((4-(5-chloro-3-methyl-2-(((2R,3R)-3-methylmorpholin-2-yl)methyl)phenyl)thieno[3,2-d]pyrimidin-6-yl)methyl)-3-azabicyclo[3.1.0]hexane-2,4-dione]
10 to 100	Cc1cc(Cl)cc(-c2ccnc3cc(CN4C(=O)CCC4=O)sc23)c1CN1[C@H](C)CNC[C@H]1C [Example 27, 1-((7-(5-chloro-2-(((2R,6R)-2,6-dimethylpiperazin-1-yl)methyl)-3-methylphenyl)thieno[3,2-b]pyridin-2-yl)methyl)pyrrolidine-2,5-dione]
< 10	Cc1cc(Cl)cc(-c2ncnc3cc(CN4C(=O)C5CC5C4=O)sc23)c1CC1CNCCS1 (centres unmarked) [Example 186, 3-((4-(5-chloro-3-methyl-2-(thiomorpholin-2-ylmethyl)phenyl)thieno[3,2-d]pyrimidin-6-yl)methyl)-3-azabicyclo[3.1.0]hexane-2,4-dione]
< 10	Cc1cc(Cl)cc(-c2ncnc3cc(CN4C(=O)CNC4=O)sc23)c1C[C@@H]1CNCC(C)(C)O1 [Example 273, (R)-3-((4-(5-chloro-2-((6,6-dimethylmorpholin-2-yl)methyl)-3-methylphenyl)thieno[3,2-d]pyrimidin-6-yl)methyl)imidazolidine-2,4-dione]
< 10	CN1CCC(=O)N(Cc2cc3ncnc(-c4cc(Cl)cc(Cl)c4CC4CNCCO4)c3s2)C1=O (centres unmarked) [Example 205, 3-((4-(3,5-dichloro-2-(morpholin-2-ylmethyl)phenyl)thieno[3,2-d]pyrimidin-6-yl)methyl)-1-methyldihydropyrimidine-2,4(1H,3H)-dione]
< 10	Cc1cc(Cl)cc(-c2ccnc3cc(CN4C(=O)C5CC5C4=O)sc23)c1C[C@@H]1CNC[C@@H](C)O1 (stereo partly drawn) [Example 99, 3-((7-(5-chloro-3-methyl-2-(((2R,6R)-6-methylmorpholin-2-yl)methyl)phenyl)thieno[3,2-b]pyridin-2-yl)methyl)-3-azabicyclo[3.1.0]hexane-2,4-dione]
< 10	Cc1cc(Cl)cc(-c2ncnc3cc(CN4C(=O)CC[C@@H]4CF)sc23)c1C[C@@H]1CNCC(C)(C)O1 [Example 219, (R)-1-((4-(5-chloro-2-(((R)-6,6-dimethylmorpholin-2-yl)methyl)-3-methylphenyl)thieno[3,2-d]pyrimidin-6-yl)methyl)-5-(fluoromethyl)pyrrolidin-2-one]
10 to 100	Cc1cc(Cl)cc(-c2ncnc3cc(CN4CC(C(F)F)CC4=O)sc23)c1C[C@@H]1CNCC(C)(C)O1 (stereo partly drawn) [Example 228, 1-((4-(5-chloro-2-(((R)-6,6-dimethylmorpholin-2-yl)methyl)-3-methylphenyl)thieno[3,2-d]pyrimidin-6-yl)methyl)-4-(difluoromethyl)pyrrolidin-2-one]
< 10	Cc1cc(Cl)cc(-c2ncnc3cc(CN4C(=O)OC[C@@H]4CF)sc23)c1C[C@@H]1CNCC(C)(C)O1 [Example 263, (R)-3-((4-(5-chloro-2-(((R)-6,6-dimethylmorpholin-2-yl)methyl)-3-methylphenyl)thieno[3,2-d]pyrimidin-6-yl)methyl)-4-(fluoromethyl)oxazolidin-2-one]
< 10	Cc1cc(Cl)cc(-c2ccnc3cc(CN4C(=O)C5CC5C4=O)sc23)c1CC1CNCC2(CC2)O1 (centres unmarked) [Example 132, 3-((7-(2-((4-oxa-7-azaspiro[2.5]octan-5-yl)methyl)-5-chloro-3-methylphenyl)thieno[3,2-b]pyridin-2-yl)methyl)-3-azabicyclo[3.1.0]hexane-2,4-dione]
< 10	Cn1ccc(=O)n(Cc2cc3ncnc(-c4cc(Cl)cc(Cl)c4CC4CNCC(C)(C)O4)c3s2)c1=O (centres unmarked) [Example 252, 3-((4-(3,5-dichloro-2-((6,6-dimethylmorpholin-2-yl)methyl)phenyl)thieno[3,2-d]pyrimidin-6-yl)methyl)-1-methylpyrimidine-2,4(1H,3H)-dione]
< 10	CC1(C)CNCC(Cc2c(Cl)cc(Cl)cc2-c2ncnc3cc(CN4C(=O)CCC4=O)sc23)O1 (centres unmarked) [Example 211, 1-((4-(3,5-dichloro-2-((6,6-dimethylmorpholin-2-yl)methyl)phenyl)thieno[3,2-d]pyrimidin-6-yl)methyl)pyrrolidine-2,5-dione]
< 10	Cc1cc(Cl)cc(-c2ncnc3cc(CN4C(=O)C5CCC5C4=O)sc23)c1CC1CNCCO1 (centres unmarked) [Example 170, 3-((4-(5-chloro-3-methyl-2-(morpholin-2-ylmethyl)phenyl)thieno[3,2-d]pyrimidin-6-yl)methyl)-3-azabicyclo[3.2.0]heptane-2,4-dione]
